From patent US8461328B2, “Tricyclic heterocyclic compounds, compositions and methods of use thereof” (Genentech, Inc., priority 2010, dated 2013) come the findings set out here.

What all share (type): biochemical
One test concerns the target T1, JAK3 (Homo sapiens, UniProt P52333).
T1 construct: made in house; host or cells: SF9 insect cells (baculovirus)
In words: JAK3 inhibition (Table 4). The settings on record: read-out: JAK3 Ki.

The target in a further test is T2, JAK1 (Homo sapiens, UniProt P23458).
T2 construct: made in house; host or cells: SF9 insect cells (baculovirus)
T2 sequence (P23458 852-1154): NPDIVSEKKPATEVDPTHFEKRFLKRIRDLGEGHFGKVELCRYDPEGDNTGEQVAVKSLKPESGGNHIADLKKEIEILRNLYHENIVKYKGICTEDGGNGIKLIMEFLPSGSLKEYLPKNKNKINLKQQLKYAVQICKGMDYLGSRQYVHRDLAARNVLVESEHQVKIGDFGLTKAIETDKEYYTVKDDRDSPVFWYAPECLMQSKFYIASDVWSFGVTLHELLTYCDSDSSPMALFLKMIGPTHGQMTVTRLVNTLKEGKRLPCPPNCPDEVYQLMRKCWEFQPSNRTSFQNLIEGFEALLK
In words: JAK1 inhibition (Table 4). Particulars: read-out: JAK1 Ki.

The target of the next test is T3, TYK2 (Homo sapiens, UniProt P29597).
T3 construct: made in house; host or cells: SF9 insect cells (baculovirus)
T3 sequence (P29597 873-1187): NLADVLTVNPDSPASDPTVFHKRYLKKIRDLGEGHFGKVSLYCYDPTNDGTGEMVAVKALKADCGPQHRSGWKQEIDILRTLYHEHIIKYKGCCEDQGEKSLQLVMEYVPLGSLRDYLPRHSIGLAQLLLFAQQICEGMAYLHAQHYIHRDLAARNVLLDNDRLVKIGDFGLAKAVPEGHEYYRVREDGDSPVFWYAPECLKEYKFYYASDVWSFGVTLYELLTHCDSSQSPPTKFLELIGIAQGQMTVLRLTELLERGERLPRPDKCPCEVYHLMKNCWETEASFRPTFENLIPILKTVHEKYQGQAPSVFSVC
In words: TYK2 inhibition (Table 4).

The next test deals with T4, JAK2 (Homo sapiens, UniProt O60674).
T4 construct: made in house; host or cells: SF9 insect cells (baculovirus)
T4 sequence (O60674 812-1132): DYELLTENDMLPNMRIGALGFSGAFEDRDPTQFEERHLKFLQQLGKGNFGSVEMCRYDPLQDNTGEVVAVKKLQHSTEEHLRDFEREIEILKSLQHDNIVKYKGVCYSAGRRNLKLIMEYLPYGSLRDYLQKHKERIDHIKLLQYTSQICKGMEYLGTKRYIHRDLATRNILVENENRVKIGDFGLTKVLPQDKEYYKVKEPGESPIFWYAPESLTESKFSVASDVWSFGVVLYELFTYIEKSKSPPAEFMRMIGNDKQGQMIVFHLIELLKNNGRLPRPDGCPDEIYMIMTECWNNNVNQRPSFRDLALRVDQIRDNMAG
Nature of the test: JAK2 inhibition (Table 4). The settings on record: read-out: JAK2 Ki.

T1 sequence (P52333 783-1124): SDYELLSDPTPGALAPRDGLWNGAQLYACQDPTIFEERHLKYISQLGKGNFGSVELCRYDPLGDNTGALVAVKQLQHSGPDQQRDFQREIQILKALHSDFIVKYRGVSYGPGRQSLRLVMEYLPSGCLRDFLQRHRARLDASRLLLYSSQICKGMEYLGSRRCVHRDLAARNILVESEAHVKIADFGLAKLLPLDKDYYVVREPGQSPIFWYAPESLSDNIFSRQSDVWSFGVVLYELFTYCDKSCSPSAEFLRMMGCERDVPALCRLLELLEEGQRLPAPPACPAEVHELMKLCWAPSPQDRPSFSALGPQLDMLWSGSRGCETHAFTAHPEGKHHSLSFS

The Ki is the equilibrium dissociation constant of an inhibitor or competing ligand from its target. With `CC(C)COCc1nc2cnc3[nH]ccc3c2n1C1CCN(CCC#N)CC1` [Example 407, 3-[4-(2-Isobutoxymethyl-6H-1,3,5,6-tetraaza-as-indacen-1-yl)-piperidin-1-yl]-propionitrile], the Ki amounted to 170 nM at JAK3, 81.2 nM at JAK1, 607 nM at TYK2 and 122 nM at JAK2.

For the molecule `CCN1CCC(n2c(CNS(C)(=O)=O)nc3cnc4[nH]ccc4c32)C(F)(F)C1` (stereo not shown) [Example 915, N-[1-(1-Ethyl-3,3-difluoro-piperidin-4-yl)-1,6-dihydro-1,3,5,6-tetraaza-as-indacen-2-ylmethyl]-methanesulfonamide], the Ki on JAK3 was 22.2 nM; on JAK1, 5.49 nM; on TYK2, 101 nM; at JAK2, 28.2 nM.

Regarding `CS(=O)(=O)Nc1ccc(N2CCC(n3cnc4cnc5[nH]ccc5c43)CC2)nc1` [Example 211, N-[4-(6H-1,2,3,5,6-Tetraaza-as-indacen-1-yl)-3,4,5,6-tetrahydro-2H-[1,2]bipyridinyl-5′-yl]-methanesulfonamide], the Ki on JAK3 was 133 nM; at JAK1, 7 nM; on TYK2, 61.4 nM; at JAK2 it was 22.2 nM.

Consider `OCc1nc2cnc3[nH]ccc3c2n1C1CCN(CCC(F)(F)F)CC1` [Example 760, {1-[1-(3,3,3-Trifluoro-propyl)-piperidin-4-yl]-1,6-dihydro-1,3,5,6-tetraaza-as-indacen-2-yl}-methanol], for which the inhibition constant (Ki) at JAK3 came to 21.7 nM; on JAK1, 3.46 nM; at TYK2 it was 25.4 nM; at JAK2, 23 nM.

Regarding `N#Cc1nc2cnc3[nH]ccc3c2n1C1CCNCC1` [Example 170, 1-Piperidin-4-yl-1,6-dihydro-1,2,3,5,6-tetraaza-as-indacene-2-carbonitrile], the Ki on JAK3 was 1050 nM; on JAK1, 92.9 nM; at TYK2, 956 nM; at JAK2 it was 334 nM.

Take `CC1CC1COCc1nc2cnc3[nH]ccc3c2n1C1CCN(CCC#N)CC1` (stereo not shown) [Example 841, 3-{4-[2-(2-Methyl-cyclopropylmethoxymethyl)-6H-1,3,5,6-tetraaza-as-indacen-1-yl]-piperidin-1-yl}-propionitrile]: the Ki at JAK3 was 147 nM; at JAK1 it was 66.5 nM; at TYK2 it was 771 nM; on JAK2 it was 109 nM.

Turning to `N#Cc1nc2cnc3[nH]ccc3c2n1C1CCN(Cc2ccccc2)CC1` [Example 163, 1-(1-Benzyl-piperidin-4-yl)-1,6-dihydro-1,2,3,5,6-tetraaza-as-indacene-2-carbonitrile], the inhibitory constant (Ki) on JAK3 was 28.1 nM; at JAK1 it was 11.2 nM; on TYK2, 607 nM; on JAK2, 10 nM.

For `CC(C)(C)OC(=O)N1CCCC[C@@H]1CN[C@H]1CC[C@H](n2cnc3cnc4[nH]ccc4c32)CC1` [Example 563, trans (R)-2-{[4-(6H-1,3,5,6-Tetraaza-as-indacen-1-yl)-cyclohexylamino]-methyl}-piperidine-1-carboxylic acid tert-butyl ester], the inhibition constant (Ki) on JAK3 is 2360 nM; on JAK1, 91 nM; on TYK2, 3320 nM; at JAK2, 611 nM.

For the molecule `CS(=O)(=O)N1[C@@H]2CC[C@H]1C[C@H](n1cnc3cnc4[nH]ccc4c31)C2` [Example 97, 1-((1S,3S,5R)-8-Methanesulfonyl-8-aza-bicyclo[3.2.1]oct-3-yl)-1,6-dihydro-1,3,5,6-tetraaza-as-indacene], the Ki at JAK3 worked out at 29.6 nM; on JAK1, 3.51 nM; at TYK2, 19.8 nM; at JAK2, 2.32 nM.

Turning to `CC1(n2nnc3cnc4[nH]ccc4c32)CCN(S(C)(=O)=O)CC1` [Example 583, 1-(1-Methanesulfonyl-4-methyl-piperidine-4-yl)-1,6-dihydro-1,2,3,5,6-pentaaza-as-indacen-1-yl], the inhibition constant Ki at JAK3 was determined as 363 nM; at JAK1, 4.36 nM; on TYK2, 173 nM; on JAK2, 31.9 nM.

Turning to `N#CCCN1CCC(n2c(Cc3cccnc3)nc3cnc4[nH]ccc4c32)CC1` [Example 403, 3-[4-(2-Pyridin-3-ylmethyl-6H-1,3,5,6-tetraaza-as-indacen-1-yl)-piperidin-1-yl]-propionitrile], the Ki on JAK3 came out at 24.2 nM; on JAK1, 10.3 nM; at TYK2 it was 102 nM; at JAK2 it was 19.2 nM.

With `CC1CN(Cc2cncnc2)CCC1n1cnc2cnc3[nH]ccc3c21` (racemic) [Example 342, 1-(3-Methyl-1-pyrimidin-5-ylmethyl-piperidin-4-yl)-1,6-dihydro-1,3,5,6-tetraaza-as-indacene], the inhibition constant (Ki) at JAK3 stood at 23.4 nM; at JAK1, 2 nM; at TYK2 it was 24.9 nM; on JAK2 it was 2.36 nM.

Take `CC(CF)N1CCC(n2c([C@@H](C)O)nc3cnc4[nH]ccc4c32)CC1` (stereo partly shown) [Example 691, 1-{1-[1-(2-Fluoro-1-methyl-ethyl)-piperidin-4-yl]-1,6-dihydro-1,2,3,5,6-tetraaza-as-indacen-2-yl}-ethanol]: the Ki at JAK3 was determined as 206 nM; on JAK1, 61.4 nM; on TYK2 it was 750 nM; at JAK2 it was 320 nM.

As for `NCC(F)(F)c1nc2cnc3[nH]ccc3c2n1C1CCN(Cc2cccnc2)CC1` [Example 588, 2,2-Difluoro-2-[1-(1-pyridin-3-ylmethyl-piperidin-4-yl)-1,6-dihydro-1,2,3,5,6-tetraaza-as-indacen-2-yl]-ethylamine], the Ki turned out to be 5.73 nM on JAK3, 5.81 nM at JAK1, 584 nM at TYK2 and 13.3 nM on JAK2.

On to `O=C([C@@H]1CCCN1)N1CCC(n2cnc3cnc4[nH]ccc4c32)CC1` [Example 249, (S)-Pyrrolidin-2-yl-[4-(6H-1,3,5,6-tetraaza-as-indacen-1-yl)-piperidin-1-yl]-methanone], for which the inhibition constant (Ki) on JAK3 was determined as 1180 nM; at JAK1 it was 48.6 nM; on TYK2, 1110 nM; at JAK2 it was 365 nM.

Take `CN(C)CCC(=O)N1CCC(n2cnc3cnc4[nH]ccc4c32)CC1` [Example 439, 3-Dimethylamino-1-[4-(6H-1,3,5,6-tetraaza-as-indacen-1-yl)-piperidin-1-yl]-propan-1-one]: the inhibition constant (Ki) was determined as 1110 nM on JAK3, 84.2 nM at JAK1, 1980 nM at TYK2 and 437 nM at JAK2.

In the case of `C[C@@H](O)c1nc2cnc3[nH]ccc3c2n1C1CCCC1` [Example 867, (R)-1-(1-Cyclopentyl-1,6-dihydro-1,3,5,6-tetraaza-as-indacen-2-yl)-ethanol], the Ki at JAK3 came to 119 nM; on JAK1, 3.58 nM; at TYK2, 26.6 nM; at JAK2, 96.5 nM.

Consider `COc1nc2cnc3[nH]ccc3c2n1C1CCN(CCC#N)CC1` [Example 655, 3-[4-(2-Methoxy-6H-1,2,3,5,6-tetraaza-as-indacen-1-yl)-piperidin-1-yl]-propionitrile], for which the Ki on JAK3 worked out at 15.9 nM; at JAK1, 0.46 nM; on TYK2, 4.67 nM; at JAK2 it was 1.08 nM.

Turning to `N#CCCn1ncc2c1CC[C@@H](n1cnc3cnc4[nH]ccc4c31)C2` [Example 992, 3-[(R)-5-(6H-1,3,5,6-Tetraaza-as-indacen-1-yl)-4,5,6,7-tetrahydro-indazol-1-yl]-propionitrile], the inhibition constant (Ki) was 253 nM on JAK3, 17.8 nM at JAK1, 108 nM at TYK2 and 37.3 nM on JAK2.
